Entries after “also recorded” stand apart in the source; their conditions may differ.
Legend:
CDK9 = target: T1, CDK9 (Homo sapiens, UniProt P50750); test: CDK9 inhibitory activity of MC180295 and its enantiomers; type: biochemical; conditions: Fig. S3E
T1 construct: purchased Reaction Biology Corp
Experimental: CDK enzymatic assays were performed by Reaction Biology Corp. (Malvern, PA), using 10 µM ATP for determining MC180295 IC50 values for each CDK family member for which assays were available. Kinase enzymatic assays were also performed by Nanosyn (Santa Clara, CA), using microfluidic technology and MC180295 IC50 curves against 10 CDKs. Selectivity against CDK9 was confirmed for the enantiomers at Reaction Biology Corp. (Malvern, PA).

[1] = test system: GFP silenced by a methylated CMV promoter in YB5 cells; test: Live-cell assay for GFP reactivation in YB5 cells; type: cell-based; conditions: for lowest concentration reactivating GFP: after 24 h treatment, FACS
Experimental: To identify novel epigenetic targets, we previously used a phenotype-based screen, the YB5 SW48 daughter cell line reporter system, to identify drugs that can reactivate GFP silenced by a methylated CMV promoter. […] […]. To better understand MC180295's antitumor effects, we tested its growth inhibition in a panel of cancer cell lines.
The live-cell assay for GFP reactivation in YB5 cells was done as previously described. Cells were treated with a single dose of drug 24 h after seeding at low density, and GFP fluorescence measured in a Millipore Guava flow cytometer (EMD, Millipore) instrument, or by imaging in a Cytation instrument (Agilent). Cancer cell lines (listed in Additional file 1: Fig. S1A) were obtained from ATCC or the Temple/Fox Chase Cellular Repository and cultured in the recommended medium. To measure growth inhibition, cells were seeded in 96-well plates at 40% confluency. Fresh medium was changed the next day and drugs were added directly. Drug-free fresh medium was changed on the fourth day. The cells were collected on day 5 by trypsin, suspended in medium, mixed with trypan blue (Thermo Fisher Scientific) (1:1 ratio), and counted using a LUNA II automated cell counter. Each sample was counted at least three times, and average numbers used for the analysis. Each treatment condition was performed in biological triplicates.

[2] = Drug toxicity: body weights and complete blood counts in tumor-bearing mice; type: in vivo
Experimental: For the s.c. SW48 model, 2 × 10^6 cells were injected into the flanks of randomly assigned, gender-matched 8–10-week-old NSG mice. 20 mg/kg MC180379, MC180380, or MC180295 was injected (i.p.), every other day, when the tumors were palpable, 11 days after engraftment, until endpoints were met. Mice were sacrificed before tumor volumes exceeded 400 mm^2 (endpoint for this model). For the s.c. HT29 model, 2 × 10^6 cells were injected into the flanks of randomly assigned, gender-matched, 8–10-week-old NSG mice. 20 mg/kg MC180379 or MC180380 was injected (i.p.), every other day, when the tumors were palpable, 12 days after engraftment, until endpoints were met. Mice were sacrificed before tumors volumes exceeded 400 mm^2 (used as the endpoint for this model). For the CT26.CL25 model, 5 × 10^5 cells were injected into the flanks of randomly assigned female 8–10-week-old B6 mice. 20 mg/kg MC180295 was injected (i.p.), every other day, when the tumors were palpable, 8 days after engraftment, until endpoints were met. 0.5 mg/kg DAC was injected (i.p.) daily until an endpoint was met. Mice were sacrificed when they developed serious tumoral ulcerations. CD8 + T cells were depleted using an anti-CD8 antibody (InVivoMAb anti-mouse CD8 (Lyt 2.1), BE0118) on days 4, 5, and 11 after inoculation. MC180295, MC180379, and MC180380 were dissolved in NMP (Fisher Scientific), Captisol® (20% w/v) (CyDex), PEG-400 (Millipore Sigma), and normal saline (PBS) (Corning), at a ratio of 1:4:4:11. NMP was added first, followed by Captisol and PEG-400. PBS was added last. DAC was dissolved in water. In a subset of the experiments, after mice were sacrificed, peripheral blood was collected, and complete blood counts were obtained using Abaxis VetScan HM5.

[3] = SW48 model, 20 mg/kg i.p. q.o.d.
[4] = HT29 model, 20 mg/kg i.p. q.o.d.

T1 sequence (P50750 whole entry): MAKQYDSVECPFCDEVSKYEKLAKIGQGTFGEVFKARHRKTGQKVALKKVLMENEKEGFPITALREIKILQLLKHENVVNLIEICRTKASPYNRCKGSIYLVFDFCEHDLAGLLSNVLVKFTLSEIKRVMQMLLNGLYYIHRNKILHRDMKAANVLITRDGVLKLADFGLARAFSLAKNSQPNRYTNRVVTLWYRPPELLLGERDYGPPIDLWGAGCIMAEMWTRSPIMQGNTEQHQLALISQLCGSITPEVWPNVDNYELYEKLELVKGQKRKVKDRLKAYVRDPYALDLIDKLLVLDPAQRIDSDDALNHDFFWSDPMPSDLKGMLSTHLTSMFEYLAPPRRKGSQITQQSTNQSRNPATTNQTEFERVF
T1 sequence (O60563 whole entry partner): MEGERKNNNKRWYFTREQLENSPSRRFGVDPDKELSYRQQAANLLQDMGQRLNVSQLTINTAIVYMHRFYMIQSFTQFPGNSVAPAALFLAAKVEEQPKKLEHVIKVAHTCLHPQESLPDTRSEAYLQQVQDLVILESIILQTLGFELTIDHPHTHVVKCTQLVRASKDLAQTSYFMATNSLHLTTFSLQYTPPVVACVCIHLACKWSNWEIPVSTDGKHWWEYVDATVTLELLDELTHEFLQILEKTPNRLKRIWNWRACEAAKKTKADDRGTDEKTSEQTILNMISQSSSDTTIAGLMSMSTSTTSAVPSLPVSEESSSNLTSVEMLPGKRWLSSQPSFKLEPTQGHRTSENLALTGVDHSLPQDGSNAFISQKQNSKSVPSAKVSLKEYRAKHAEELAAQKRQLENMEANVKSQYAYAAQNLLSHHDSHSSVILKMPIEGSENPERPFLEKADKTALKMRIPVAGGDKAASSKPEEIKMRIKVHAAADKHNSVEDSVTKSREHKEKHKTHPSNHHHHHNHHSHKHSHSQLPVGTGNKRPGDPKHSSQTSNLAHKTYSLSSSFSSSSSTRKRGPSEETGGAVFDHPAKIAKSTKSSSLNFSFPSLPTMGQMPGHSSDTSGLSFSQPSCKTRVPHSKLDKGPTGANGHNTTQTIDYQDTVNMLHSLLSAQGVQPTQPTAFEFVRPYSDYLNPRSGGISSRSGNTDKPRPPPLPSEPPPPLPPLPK

Row | Compound | IC50 (CDK9) [nM] | lowest concentration reactivating GFP [1] [nM] | body weights ([2]; CT26.CL25 immunocompetent mice, after CD8 depletion, Fig. S5B) | body weights ([2]; CT26.CL25 immunocompetent mouse model, Fig. S5A) | body weights ([2]; SW48 model, NSG mice, Fig. S4C) | tolerability; neutrophil, lymphocyte, monocyte counts [2, 3] | potency in inducing GFP (comparison of enantiomers) ([1]; 24 h and 4 days after one-time treatment) | absolute lymphocyte and monocyte counts [2, 4] | platelet counts [2, 4] | platelet counts [2, 3] | body weights ([2]; SW48 model, NSG mice, Fig. S4E) | bone marrow suppression ([2]; in vivo, from lymphocyte, monocyte and platelet counts)
1 | Nc1nc(N[C@H]2C[C@@H]3CC[C@H]2C3)sc1C(=O)c1ccccc1[N+](=O)[O-] (relative stereo) [MC180295] | 11 | 100 | neither MC180295 nor MC180295 + DAC treatment affected NSG mouse body weights, after CD8 depletion | neither MC180295 nor MC180295 + DAC treatment affected NSG mouse body weights | did not affect NSG mouse body weights | – | – | – | – | – | – | –
2 | Nc1nc(N[C@@H]2C[C@H]3CC[C@@H]2C3)sc1C(=O)c1ccccc1[N+](=O)[O-] [MC180379] | 11 | 500 | – | – | – | well-tolerated | – | – | – | – | – | –
3 | Nc1nc(N[C@H]2C[C@@H]3CC[C@H]2C3)sc1C(=O)c1ccccc1[N+](=O)[O-] [MC180380] | 9 | 100 | – | – | – | well-tolerated | more potent than MC18379 in inducing GFP; also recorded: epigenetically more potent than MC180379 | higher absolute lymphocyte and monocyte counts than MC180379-treated mice | higher platelet counts than those treated with MC180379 | slightly higher platelet counts than MC180379 | did not affect NSG mouse body weights | less bone marrow-suppressive (and thus less toxic) than MC180379

— publication PMC10765884, “MC180295 is a highly potent and selective CDK9 inhibitor with preclinical in vitro and in vivo efficacy in cancer” (Clinical Epigenetics, 2024)
